Here are results for six molecules from article PMC3245313, “Helicobacter pylori versus the Host: Remodeling of the Bacterial Outer Membrane Is Required for Survival in the Gastric Mucosa” (PLoS Pathogens, 2011).

Where two headings read alike, the source gives them in different places. Where a SMILES comes first, the peptide text is derived from it. Bridges are numbered along the chain shown (N, C = ends). Where no end group is shown, it is not given here.

Assay [1] deals with H. pylori J99 lpxE/F.
Assay [2] has as its system H. pylori J99 lpxE.
Assay [3] has as its system H. pylori J99 lpxF.
Assay [4] concerns H. pylori J99 lpxR.
Assay [5] concerns H. pylori J99 Wild Type.
In assay [6] the test system is H. pylori J99 lpxE/F. The format is cell-based, Helicobacter pylori.
Assay [7] concerns H. pylori wild type strains. The conditions noted are these: cited from earlier work. The procedure:
Resistance to CAMPs is of great importance to all mucosal pathogens. This is especially true for H. pylori whose only known reservoir is the human gastric mucosal surface. H. pylori is highly resistant to the CAMP polymyxin B (PMB) with the minimal inhibitory concentration (MIC) of wild type strains ranging from 250–1000 µg/ml peptide. […] MICs were determined for all strains using PMB Etest strips. H. pylori wild type strain J9 ...

For assay [8], the system named is H. pylori J99 lpxR. Type of assay: cell-based, Helicobacter pylori. The conditions noted are these: Polymyxin B E-Test strips on TSA with 5% blood, average of three experiments.
The test system of assay [9] is H. pylori B128 lpxE, lpxE+. The format is cell-based, Helicobacter pylori. The conditions noted are these: Polymyxin B E-Test strips on TSA with 5% blood, average of three experiments.
The next assay concerns H. pylori B128 lpxE. Type of assay: cell-based, Helicobacter pylori. The conditions noted are these: Polymyxin B E-Test strips on TSA with 5% blood, average of three experiments.
Assay [10] relates to H. pylori J99 lpxF, lpxF+. Type of assay: cell-based, Helicobacter pylori. As to conditions: Polymyxin B E-Test strips on TSA with 5% blood, average of three experiments.
For another assay, the system named is H. pylori X47 Wild Type. Type of assay: cell-based, Helicobacter pylori. The conditions noted are these: Polymyxin B E-Test strips on TSA with 5% blood, average of three experiments.
A further assay has as its system H. pylori B128 lpxE/F. Type of assay: cell-based, Helicobacter pylori. The conditions noted are these: Polymyxin B E-Test strips on TSA with 5% blood, average of three experiments.
The subject of another assay is H. pylori B128 lpxF. Type of assay: cell-based, Helicobacter pylori. As to conditions: Polymyxin B E-Test strips on TSA with 5% blood, average of three experiments.
The test system of assay [11] is H. pylori X47 lpxF, lpxF+. Type of assay: cell-based, Helicobacter pylori. As to conditions: Polymyxin B E-Test strips on TSA with 5% blood, average of three experiments.
The next assay deals with H. pylori B128 Wild Type. Type of assay: cell-based, Helicobacter pylori. As to conditions: Polymyxin B E-Test strips on TSA with 5% blood, average of three experiments.
The next assay concerns H. pylori X47 lpxF. The format is cell-based, Helicobacter pylori. As to conditions: Polymyxin B E-Test strips on TSA with 5% blood, average of three experiments.
The test system of the next assay is H. pylori X47 lpxE/F. Type of assay: cell-based, Helicobacter pylori. As to conditions: Polymyxin B E-Test strips on TSA with 5% blood, average of three experiments.
Assay [12] concerns H. pylori J99 lpxE. Type of assay: cell-based, Helicobacter pylori.
The test system of assay [13] is H. pylori J99 Wild Type. The format is cell-based, Helicobacter pylori. The conditions noted are these: Polymyxin B E-Test strips on TSA with 5% blood, average of three experiments.
Assay [14] concerns H. pylori J99 lpxF. Type of assay: cell-based, Helicobacter pylori.
Another assay has as its system H. pylori X47 lpxE. Type of assay: cell-based, Helicobacter pylori. The conditions noted are these: Polymyxin B E-Test strips on TSA with 5% blood, average of three experiments.

As for `CC[C@H](C)[C@@H]1NC(=O)[C@@H]2CSSC[C@@H]3NC(=O)[C@H](Cc4ccccc4)NC(=O)[C@H](C)NC(=O)[C@H](Cc4c[nH]c5ccccc45)NC(=O)[C@H](CC(C)C)NC(=O)[C@H](CCCNC(=N)N)NC(=O)CNC(=O)[C@H](CCC(N)=O)NC(=O)[C@H](Cc4ccc(O)cc4)NC(=O)[C@H]([C@@H](C)CC)NC(=O)[C@H](CSSC[C@H](NC(=O)[C@H](Cc4ccc(O)cc4)NC(=O)[C@@H](N)CSSC[C@@H](C(=O)O)NC3=O)C(=O)N[C@@H](CCCNC(=N)N)C(=O)N[C@@H]([C@@H](C)CC)C(=O)N3CCC[C@H]3C(=O)N[C@@H](C)C(=O)N2)NC(=O)[C@H]([C@@H](C)O)NC(=O)CNC(=O)[C@H](Cc2ccc(O)cc2)NC(=O)[C@H](CCCNC(=N)N)NC(=O)[C@H](CCCNC(=N)N)NC(=O)[C@H](CCC(=O)O)NC(=O)CNC(=O)[C@H](C)NC1=O` [HNP2] (H-CYCRIPACIAGERRYGTCIYQGRLWAFCC-OH; disulfide 1-29, 3-18, 8-28 (inferred); N-terminus and C-terminus assumed), the “Minimal Inhibitory Concentration (MIC)” value in the assay with H. pylori J99 lpxE/F [1] (J99 lpxE/F, 48 h) was more than 25 µg/mL; with H. pylori J99 lpxE [2] (J99 lpxE, 48 h), more than 25 µg/mL; in the assay with H. pylori J99 lpxF [3] (J99 lpxF, 48 h), more than 25 µg/mL; in the assay with H. pylori J99 lpxR [4] (J99 lpxR, 48 h), more than 25 µg/mL; in the assay on H. pylori J99 Wild Type [5] (J99 Wild Type, 48 h), more than 25 µg/mL.
For `CC[C@H](C)[C@H](NC(=O)[C@H](CCCCN)NC(=O)[C@H](CCC(=O)O)NC(=O)[C@H](CCCCN)NC(=O)[C@H](CO)NC(=O)[C@H](CCCCN)NC(=O)[C@H](CCCNC(=N)N)NC(=O)[C@H](Cc1ccccc1)NC(=O)[C@H](Cc1ccccc1)NC(=O)[C@H](CC(=O)O)NC(=O)CNC(=O)[C@H](CC(C)C)NC(=O)[C@@H](N)CC(C)C)C(=O)NCC(=O)N[C@@H](CCCCN)C(=O)N[C@@H](CCC(=O)O)C(=O)N[C@@H](Cc1ccccc1)C(=O)N[C@@H](CCCCN)C(=O)N[C@@H](CCCNC(=N)N)C(=O)N[C@H](C(=O)N[C@H](C(=O)N[C@@H](CCC(N)=O)C(=O)N[C@@H](CCCNC(=N)N)C(=O)N[C@H](C(=O)N[C@@H](CCCCN)C(=O)N[C@@H](CC(=O)O)C(=O)N[C@@H](Cc1ccccc1)C(=O)N[C@@H](CC(C)C)C(=O)N[C@@H](CCCNC(=N)N)C(=O)N[C@@H](CC(N)=O)C(=O)N[C@@H](CC(C)C)C(=O)N[C@H](C(=O)N1CCC[C@H]1C(=O)N[C@@H](CCCNC(=N)N)C(=O)N[C@H](C(=O)N[C@@H](CCC(=O)O)C(=O)N[C@@H](CO)C(=O)O)[C@@H](C)O)C(C)C)[C@@H](C)CC)C(C)C)[C@@H](C)CC` [LL37], the “Minimal Inhibitory Concentration (MIC)” value in the assay on H. pylori J99 lpxE/F [1] (J99 lpxE/F, 48 h) is 11 ± 1 µg/mL; in the assay with H. pylori J99 lpxE [2] (J99 lpxE, 48 h), 40 ± 0 µg/mL; with H. pylori J99 lpxF [3] (J99 lpxF, 48 h) it was 19 ± 2 µg/mL; with H. pylori J99 lpxR [4] (J99 lpxR, 48 h), 41 ± 6 µg/mL; in the assay on H. pylori J99 Wild Type [5] (J99 Wild Type, 48 h) it was 40 ± 5 µg/mL.
In the case of AKKVFKRLEKLFSKIQNDK [HP2.20], the “fold decrease in resistance” value in the assay with H. pylori J99 lpxE/F [1] (J99 double lpxE/F mutant versus wild type, broth dilution MICs) was not below 60 fold. Further, the “Minimal Inhibitory Concentration (MIC)” value with H. pylori J99 lpxE/F [1] (J99 lpxE/F, 48 h) is 18 ± 3 µg/mL; with H. pylori J99 lpxE [2] (J99 lpxE, 48 h) it was 583 ± 29 µg/mL; in the assay on H. pylori J99 lpxF [3] (J99 lpxF, 48 h), 60 ± 0 µg/mL; with H. pylori J99 lpxR [4] (J99 lpxR, 48 h), more than 1250 µg/mL; in the assay on H. pylori J99 Wild Type [5] (J99 Wild Type, 48 h), more than 1250 µg/mL.
As to “AKRHHGYKRKFH-NH2 (C-terminus assumed) [P113]”, the “Minimal Inhibitory Concentration (MIC)” value in the assay on H. pylori J99 lpxE/F [1] (J99 lpxE/F, 48 h) was 141 ± 14 µg/mL; with H. pylori J99 lpxE [2] (J99 lpxE, 48 h) it was 341 ± 14 µg/mL; in the assay with H. pylori J99 lpxF [3] (J99 lpxF, 48 h) it was 178 ± 3 µg/mL; with H. pylori J99 lpxR [4] (J99 lpxR, 48 h), more than 400 µg/mL; in the assay on H. pylori J99 Wild Type [5] (J99 Wild Type, 48 h), more than 400 µg/mL.
Regarding “GIGDPVTCLKSGAICHPVFCPRRYKQIGTCGLPGTKCCKKP (disulfide 8-37, 15-30, 20-38 (inferred)) [HBD2]”, the “Minimal Inhibitory Concentration (MIC)” value with H. pylori J99 lpxE/F [1] (J99 lpxE/F, 48 h) is 5.0 ± 1.0 µg/mL; with H. pylori J99 lpxE [2] (J99 lpxE, 48 h) it was 23 ± 3 µg/mL; with H. pylori J99 lpxF [3] (J99 lpxF, 48 h) it was 12 ± 1 µg/mL; in the assay on H. pylori J99 lpxR [4] (J99 lpxR, 48 h), more than 25 µg/mL; in the assay with H. pylori J99 Wild Type [5] (J99 Wild Type, 48 h), more than 25 µg/mL.
Regarding polymyxin B, the “Minimal Inhibitory Concentration (MIC)” value is 0.6 ± 0.1 µg/mL with H. pylori J99 lpxE/F [1]; 22 ± 2 µg/mL in the assay with H. pylori J99 lpxE [2]; 250 to 1000 µg/mL in assay [7]; 3.8 ± 0.3 µg/mL with H. pylori J99 lpxF [3]; more than 250 µg/mL in the assay with H. pylori J99 lpxR [4]; more than 250 µg/mL in the assay with H. pylori J99 Wild Type [5]. Also, the “fold decrease in resistance (increase in sensitivity) to PMB” value in the assay with H. pylori J99 lpxE/F [6] (J99 double lpxE/F mutant versus wild type J99, Etest MICs) is 1020 fold; in the assay with H. pylori J99 lpxE [12] (J99 lpxE mutant versus wild type J99, Etest MICs), 16 fold; with H. pylori J99 lpxF [14] (J99 lpxF mutant versus wild type J99, Etest MICs), 360 fold. Besides, the “Polymyxin MIC” value was determined as 0.46 ± 0.03 µg/mL in the assay with H. pylori J99 lpxE/F [6] (J99 lpxE/F, Polymyxin B E-Test strips on TSA with 5% blood, average of three experiments); 512.0 ± 0.0 µg/mL in the assay with H. pylori J99 lpxR [8]; 512 ± 0.0 µg/mL with H. pylori J99 lpxR [8] (listed as PMB); 234.7 ± 37.0 µg/mL in [9]; 26.7 ± 4.6 µg/mL in the assay on H. pylori B128 lpxE; 512.0 ± 0.0 µg/mL in assay [10]. The “Polymyxin MIC” value amounted to 768.0 ± 0.0 µg/mL in the assay on H. pylori X47 Wild Type; 0.61 ± 0.04 µg/mL in the assay on H. pylori B128 lpxE/F; 1.8 ± 0.3 µg/mL with H. pylori B128 lpxF; 682.7 ± 147.8 µg/mL in assay [11]; 213.3 ± 37.0 µg/mL with H. pylori B128 Wild Type; 2.3 ± 0.6 µg/mL in the assay on H. pylori X47 lpxF. For the same molecule, the “Polymyxin MIC” value in the assay on H. pylori X47 lpxE/F is 0.55 ± 0.08 µg/mL; in the assay with H. pylori J99 lpxE [12] (J99 lpxE, Polymyxin B E-Test strips on TSA with 5% blood, average of three experiments), 29.3 ± 4.6 µg/mL; in the assay on H. pylori J99 Wild Type [13], 469.3 ± 73.9 µg/mL; with H. pylori J99 lpxF [14] (J99 lpxF, Polymyxin B E-Test strips on TSA with 5% blood, average of three experiments), 1.3 ± 0.3 µg/mL; with H. pylori X47 lpxE it was 37.3 ± 9.2 µg/mL.
